Two molecules from ChEMBL document CHEMBL1121370, “Synthesis and biological activity of a ketomethylene analogue of a tripeptide inhibitor of angiotensin converting enzyme” (J Med Chem, 1980) can be followed below.

The species entered for assay [1] is Cavia porcellus. The assay can be described thus: Compound is evaluated for the inhibition of guinea pig ileum contraction caused by 25 ng/mL angiotensin I. In kind it is functional, organism-based.
Assay [2] in a line: Enzyme kinetic inhibition constant against tripeptide, Angiotensin I as substrate in a competition inhibition assay.
The nature of assay [3]: Enzyme kinetic inhibition constant against tripeptide, Hip-His-Leu as substrate.

As a reminder, the IC50 is the concentration needed to halve the response being measured. A word on the Ki: it is a measure of affinity in units of concentration, obtained from inhibition or displacement. Lower therefore signals tighter binding. Take `O=C(N[C@@H](Cc1ccccc1)C(=O)CCC(=O)N1CCC[C@H]1C(=O)O)c1ccccc1`: the concentration for half-maximal inhibition (IC50) in assay [1] was 0.5 µg/mL. The Ki in assay [2] was found to be 870 nM; in assay [3] it was 106 nM.

As for `C[C@H](CS)C(=O)N1CCC[C@H]1C(=O)O` [CAPTOPRIL], the half-inhibitory concentration (IC50) in assay [1] worked out at 0.05 µg/mL. In assay [3], the inhibition constant (Ki) is 71.5 nM.
